Values quoted from earlier work as cited in PMC12586580 (Nature Communications, 2025).

Tests used:
[1] = test system: Pmt2 MIR domain
[2] = test system: Pmt3 MIR domain
[3] = test system: Pmt4

Compound | affinity for Man [1] | affinity for Man [2] | Pmt4 substrate property (in words) [3]
OC[C@H]1OC(O)[C@@H](O)[C@@H](O)[C@@H]1O (stereo partly drawn) [Man, mannose] | low mM affinity | low mM affinity | –
Ccw5: yeast cell wall protein 5 (Ccw5) (ASKTSTNATSSSCATPSLKD) | – | – | good Pmt4 substrate
